Test system: citric acid-induced cough
Assay: Guinea pig cough model, citric acid mist
Type: in vivo
Conditions: 2 mg/mL in saline, 75 μL per animal, 1 M citric acid mist, 10 min observation period
Experimental: Male specific pathogen—free guinea pigs about one month of age, weighing 250 to 300 g, were obtained from the medical experimental animal center of Guang Dong Province, China, and housed in rooms maintained at 22±2° C. and 55±15% humidity with a 12-hr light cycle and 20 air changes per hr. The experimental procedures were approved by the Institutional Animal Care and Use Committee. Guinea pigs were placed in a transparent plastic 2 L plethysmography chamber equipped with a bias flow regulator that withdrew air at a rate of 2.5 L/min (Buxco, Wilmington, N.C., USA). […] The frequency was detected as a transient change in airflow in the chamber and the signal recorded via a pressure transducer and computer. Additionally, the audio-amplified count was also recorded electronically. Coughs were counted for the 10 min exposure period. The experiment was visually monitored by the investigator. The baseline frequency of coughing was recorded for all animals (N=20) and 7 days later, animals were anesthetized with diethyl ether. […] Ten min after injection, the guinea pigs were exposed to the citric acid mist and the number of coughs recorded.

Structure (SMILES): CCCCCP(=O)(C(C)CC)C(C)CC (stereo not shown) [DAPA-2-5, 1-Di(sec-butyl)-phosphinoyl-pentane]
- cough frequency: 6.7±1.6 coughs
